Results taken from US10624829B2, “VEGFC production promoter” (Shiseido Company, Ltd., priority 2012, dated 2020).

Tests used:
HaCaT cells = test: Cytotoxicity / cell number by alamar blue fluorescence in HaCaT cells; format: cell-based, human; details: aromatic final concentration 0.001% to 0.01%, 48 hours, alamar blue (Ex: 544 nm, Em: 590 nm)
Description: (§1) Human-derived cultured cells in the form of HaCaT cells (German Cancer Research Center, Heidelberg, Germany) were cultured in DMEM medium (Gibco Low Glucose DMEM™, Life Technologies Inc.) containing 10% FBS (Standard Fetal Bovine Serum, Hyclone Laboratories Inc.) and disseminated in a 24-well plate to 15×10^4 cells/well. The medium was replaced with serum-free DMEM 24 hours after dissemination followed by culturing for 24 hours. Subsequently, each aromatic dissolved in ethanol was added (aromatic final concentration: 0.001% to 0.01%). Ethanol was used as a control. The culture supernatant was recovered after culturing for 48 hours and the amount of VEGFC in the culture supernatant was quantified in accordance with the protocol of an ELISA kit (Quanikine® Human VEGF-C Immunoassay (R&D Systems Inc., Minneapolis, Minn.)). In addition, alamar blue (TREK Diagnostic Systems, Inc., Cleveland, US) was added to the cells after recovering the culture supernatant followed by measuring the number of cells based on their fluorescence intensity (Ex: 544 nm, Em: 590 nm). The amount of VEGFC in the supernatant was divided by fluorescence intensity, and the relative VEGFC-inducing activity per cell based on a value of 100 for the control (ethanol) is shown in FIG. 1.

VEGFC = test: VEGFC-inducing activity in HaCaT cells (VEGF-C ELISA of culture supernatant, normalised to cell number); format: cell-based, human; details: aromatic final concentration 0.001% to 0.01%, 48 hours culture, ELISA of supernatant divided by alamar blue fluorescence, values only in FIG. 1
Description: As is described in detail in the subsequent examples, screening for agents that induce a lymph vessel activating factor in the form of VEGFC was carried out by allowing various types of candidate aromatics to act on human epidermis-derived cultured cells in the form of HaCaT cells, quantifying VEGFC, and selecting aromatics having VEGFC-inducing activity as active ingredients by using the amount of VEGFC as an indicator of VEGFC-inducing activity.
as §1, with “Subsequently, each aromatic dissolved in ethanol was added (aromatic final concentration: 0.001% to 0.01%). Ethanol was used as a control.” left out, “The amount of VEGFC in the supernatant was divided by fluorescence intensity, and the relative VEGFC-inducing activity per cell based on a value of 100 for the control (ethanol) is shown in FIG. 1.” left out

SMILES	cytotoxicity (HaCaT cells)	relative VEGFC-inducing activity per cell based on a value of 100 for the control (ethanol) (VEGFC)
CC(C)=CC1CC(C)CCO1 (stereo not shown) [rose oxide, Rose oxide]	without demonstrating cytotoxicity	demonstrated VEGFC-inducing activity
CC(=O)OCCC(C)CCC=C(C)C (stereo not shown) [citronellyl acetate, Citronellyl acetate]	without demonstrating cytotoxicity	demonstrated VEGFC-inducing activity
